In patent US9499467B2, “Ortho-fluoro substituted compounds for the treatment of metabolic diseases” (CALDAN THERAPEUTICS LIMITED, priority 2011, dated 2016):

What follows are molecules tested against T1, GPR40 (Homo sapiens, UniProt O14842) (assay: Calcium mobilization in GPR40-transfected cells). Details: calcium mobilization in GPR40-transfed cells.
T1 construct: expressed in transfected cells
Type: cell-based
Experimental: The compounds were tested for their ability to mobilize calcium in GPR40-transfed cells as described by Christiansen et al. (J. Med. Chem. 2011, 54, 6691-6703).

T1 sequence (O14842 whole entry): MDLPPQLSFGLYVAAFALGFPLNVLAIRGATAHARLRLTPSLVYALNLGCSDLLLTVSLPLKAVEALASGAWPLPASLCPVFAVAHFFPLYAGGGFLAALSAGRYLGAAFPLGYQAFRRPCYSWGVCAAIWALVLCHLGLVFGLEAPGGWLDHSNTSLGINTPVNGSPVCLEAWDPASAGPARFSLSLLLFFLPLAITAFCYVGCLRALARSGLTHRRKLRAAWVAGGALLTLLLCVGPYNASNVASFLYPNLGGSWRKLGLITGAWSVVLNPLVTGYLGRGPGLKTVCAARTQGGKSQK

Row | SMILES | GPR40 activity (pEC50)
1 | O=C(O)CCc1c(F)cc(C#Cc2ccccc2)cc1F [Example 10, 3-(2,6-Difluoro-4-(phenylethynyl)phenyl)propanoic acid] | 6.85
2 | CS(=O)(=O)Cc1cccc(C#Cc2ccc(CCC(=O)O)c(F)c2)c1 [Example 9, 3-(2-Fluoro-4-((3-((methylsulfonyl)methyl)phenyl)ethynyl)phenyl)propanoic acid] | 5.71
3 | CS(=O)(=O)Cc1ccccc1C#Cc1ccc(CCC(=O)O)c(F)c1 [Example 8, 3-(2-Fluoro-4-((2-((methylsulfonyl)methyl)phenyl)ethynyl)phenyl)propanoic acid] | 5.84
4 | C/C=C(\C)C#Cc1ccc(CCC(=O)O)c(F)c1 [Example 4, (E)-3-(2-Fluoro-4-(3-methylpent-3-en-1-yn-1-yl)phenyl)propanoic acid] | 7.43
5 | C/C=C(/C)C#Cc1ccc(CCC(=O)O)c(F)c1 [Example 3, (Z)-3-(2-Fluoro-4-(3-methylpent-3-en-1-yn-1-yl)phenyl)propanoic acid] | 7.69
6 | C=C(C)C#Cc1ccc(CCC(=O)O)c(F)c1 [Example 2, 3-(2-Fluoro-4-(3-methylbut-3-en-1-yn-1-yl)phenyl)propanoic acid] | 7.09
7 | Cc1ccccc1C#Cc1ccc(CCC(=O)O)c(F)c1 [Example 5, 3-(2-Fluoro-4-(o-tolylethynyl)phenyl)propanoic acid] | 7.48
8 | O=C(O)CCc1ccc(C#Cc2ccccc2)c(F)c1 [Example 11, 3-(3-Fluoro-4-(phenylethynyl)phenyl)propanoic acid] | 6.84
9 | C/C(C#Cc1ccc(CCC(=O)O)c(F)c1)=C/CO [Example 12, (Z)-3-(2-Fluoro-4-(5-hydroxy-3-methylpent-3-en-1-yn-1-yl)phenyl)propanoic acid] | 6.37
10 | O=C(O)CCc1ccc(C#Cc2ccccc2)cc1F [Example 1, 3-(2-Fluoro-4-(phenylethynyl)phenyl)propanoic acid] | 7.48
11 | Cc1ccc(C#N)cc1C#Cc1ccc(CCC(=O)O)c(F)c1 [Example 7, 3-(4-((5-Cyano-2-methylphenyl)ethynyl)-2-fluorophenyl)propanoic acid] | 7.77
12 | O=C(O)CCc1ccc(C#Cc2cc(F)ccc2C(F)F)cc1F [Example 14, 3-(4-((2-(Difluoromethyl)-5-fluorophenyl)ethynyl)-2-fluorophenyl)propanoic acid] | 7.74
13 | O=C(O)CCc1ccc(C#Cc2cc(Cl)cc(Cl)c2)cc1F [Example 13, 3-(4-((3,5-Dichlorophenyl)ethynyl)-2-fluorophenyl)propanoic acid] | 7.42
